Experimental findings from US20240189309A1, “TYK2 INHIBITORS AND USES THEREOF” (Sudo Biosciences Limited, priority 2021, published 2024) are described below.

One may read the IC50 as the point on the concentration scale where inhibition reaches its midpoint.

The target in test [1] is T1, TYK2 Pseudokinase (JH2) (Homo sapiens, UniProt P29597). Kind of test: HEK-Blue IFNα/β reporter assay (SEAP) for profiling TYK2 pseudokinase (JH2) inhibition. Format: cell-based. The following applies: HEK-Blue IFNα/β cells, 1 ng/mL human recombinant IFNα, read-out: IFNα (TYK2 inhibitory activity, IC50). The protocol:
(§1) Example B-1: HEK-Blue™ IL-23 and IFNα/β Reporter Assays for Profiling TYK2 Pseudokinase (JH2) Inhibition
(§2) HEK-Blue™ IL-23 and IFNα/β cells with a stably-integrated cytokine receptor and STAT3 or STAT1 express STAT-inducible secreted embryonic alkaline phosphatase (SEAP) reporter gene upon cytokine stimulation. These cells are plated in DMEM (Gibco) containing 10% heat-inactivated FBS (Gibco) and 100 U/mL PenStrep (Gibco) at 37° C. under 5% CO2 conditions for 20-22 hours. The cells are then pretreated with serially diluted test compounds for 60 min prior to stimulation with either 10 ng/mL human recombinant IL-23 (Miltenyl Biotech) or 1 ng/mL human recombinant IFNα (InvivoGen) for 22-24 hours for IL-23 or 16-18 h for IFNα. SEAP induction is measured using the QUANTI Blue™ Solution (InvivoGen) according to the manufacturer's instructions.
Background: Reporter assays use an easily measured gene product as a stand-in for the process of interest.

Another test addresses T2, TYK2-JH1 (Homo sapiens, UniProt P29597).
T2 construct: recombinant purified His or GST-tagged catalytic domain for each enzyme; made in house
T2 sequence (P29597 897-1176 limits assumed): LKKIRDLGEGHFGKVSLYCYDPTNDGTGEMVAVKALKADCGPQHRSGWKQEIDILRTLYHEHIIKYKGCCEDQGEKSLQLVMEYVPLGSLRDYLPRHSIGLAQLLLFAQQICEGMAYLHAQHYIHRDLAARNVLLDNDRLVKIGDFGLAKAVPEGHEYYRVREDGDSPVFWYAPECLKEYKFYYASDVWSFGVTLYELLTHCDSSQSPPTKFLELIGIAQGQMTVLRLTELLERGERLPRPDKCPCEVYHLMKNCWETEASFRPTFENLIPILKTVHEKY
Briefly: HTRF-based selectivity assay, TYK2 catalytic domain. Type of test: biochemical. To be noted: kinase domain (JH1), ATP 20 μM. As for the experimental part: (§3) Example B-2: HTRF-Based Selectivity Assay
(§4) The ability of compounds to inhibit the activity of JAK1, JAK2, JAK3 and TYK2 is measured using a recombinant purified His or GST-tagged catalytic domain for each enzyme (JAK1, JAK2 and TYK2 are generated in-house; JAK3 was purchased from Carna biosciences, Cat #08-046) in an HTRF format biochemical assay. The reactions employs a commercial peptide substrate from Cisbio (Cat #62TK0PEC). The basic assay protocol is as follows: first, 2.5 μL of diluted compounds (4×) in DMSO are dispensed into a 384-well Optiplate. Next, 2.5 μL of enzyme (final concentrations for enzymes are: TYK2—700 ng/mL, JAK1—80.6 ng/mL, JAK2—2.1 ng/mL and JAK3—171.8 ng/mL) is added and incubated at RT for 5-20 min. Finally, 5 μl of mixture of 2×ATP [Final concentration 20 μM for TYK2, 21.43 μM for JAK1, 14.7 μM for JAK2 and 2.12 μM for JAK3]+2× Substrate [Final concentration 217 nM for TYK2, 454.7 nM for JAK1, 200 nM for JAK2 and 257.4 nM for JAK3] is added to 384 well Optiplate. Composition of Kinase assay buffer used in the assay is as follows: HEPES 50 mM, EGTA 1 mM, MgCl2 10 mM, DTT 2 mM, Tween-20 0.01% and water. Then the plates are shaken and then incubated at 26.5° C. for 60 min.
For orientation: Time-resolved FRET reads energy transfer from a long-lived donor to a nearby acceptor.

The target in the next test is T3, JAK1-JH1 (Homo sapiens, UniProt P23458).
T3 construct: recombinant purified His or GST-tagged catalytic domain for each enzyme; made in house
T3 sequence (P23458 875-1153 limits assumed): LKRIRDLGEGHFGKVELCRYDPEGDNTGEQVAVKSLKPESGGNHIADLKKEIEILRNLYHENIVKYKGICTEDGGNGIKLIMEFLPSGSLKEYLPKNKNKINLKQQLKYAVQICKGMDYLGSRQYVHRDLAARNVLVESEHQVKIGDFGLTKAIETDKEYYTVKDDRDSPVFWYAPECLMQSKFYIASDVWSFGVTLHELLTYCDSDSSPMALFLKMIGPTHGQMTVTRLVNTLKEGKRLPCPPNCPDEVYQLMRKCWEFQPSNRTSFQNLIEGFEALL
Briefly: HTRF-based selectivity assay, JAK1 catalytic domain. The following applies: kinase domain (JH1), ATP 21.43 μM. Type of test: biochemical. The protocol:
as §3, §4

The next test deals with T4, JAK2-JH1 (Homo sapiens, UniProt O60674).
T4 construct: recombinant purified His or GST-tagged catalytic domain for each enzyme; made in house
T4 sequence (O60674 849-1124 limits assumed): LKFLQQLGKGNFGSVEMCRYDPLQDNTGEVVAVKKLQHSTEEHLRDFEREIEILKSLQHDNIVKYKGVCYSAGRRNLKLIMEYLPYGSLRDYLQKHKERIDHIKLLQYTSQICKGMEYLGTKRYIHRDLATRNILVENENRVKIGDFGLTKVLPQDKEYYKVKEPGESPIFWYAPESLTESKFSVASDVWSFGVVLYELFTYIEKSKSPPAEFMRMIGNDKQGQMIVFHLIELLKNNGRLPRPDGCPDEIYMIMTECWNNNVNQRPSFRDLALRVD
Briefly: HTRF-based selectivity assay, JAK2 catalytic domain. Type of test: biochemical. To be noted: kinase domain (JH1), ATP 14.7 μM. As for the experimental part: as §3, §4

For the next test, the target named is T5, JAK3-JH1 (Homo sapiens, UniProt P52333).
T5 construct: recombinant purified His or GST-tagged catalytic domain for each enzyme; purchased Carna biosciences 08-046
T5 sequence (P52333 822-1111 limits assumed): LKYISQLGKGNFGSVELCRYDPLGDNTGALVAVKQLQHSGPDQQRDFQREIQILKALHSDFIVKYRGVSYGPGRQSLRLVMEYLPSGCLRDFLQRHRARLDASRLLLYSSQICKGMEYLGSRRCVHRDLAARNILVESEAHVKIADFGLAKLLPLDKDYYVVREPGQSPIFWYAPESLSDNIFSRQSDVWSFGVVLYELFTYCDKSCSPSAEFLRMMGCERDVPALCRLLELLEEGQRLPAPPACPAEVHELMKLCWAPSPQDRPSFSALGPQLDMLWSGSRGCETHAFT
Kind of test: HTRF-based selectivity assay, JAK3 catalytic domain. Format: biochemical. The following applies: kinase domain (JH1), ATP 2.12 μM. As for the experimental part:
as §3, §4

Test [2] has as its system HEK-Blue™ IL-2 reporter cells. Kind of test: HEK-Blue IL-2 reporter assay (SEAP) for determining selectivity. Type of test: cell-based. The following applies: HEK-Blue IL-2 cells, 4 ng/mL human recombinant IL-2, SEAP reporter. The protocol: (§5) Example B-3: HEK-Blue™ IL-2 and IFNγ Reporter Assays for Determining Selectivity
(§6) HEK-Blue™ IL-2 and IFNγ reporter cells with a stably-integrated cytokine receptor and STAT5 or STAT1 express STAT-inducible secreted embryonic alkaline phosphatase (SEAP) reporter gene upon cytokine stimulation. These cells were plated in DMEM (Gibco) containing 10% heat-inactivated FBS (Gibco) and 100 U/mL PenStrep (Gibco) at 37° C. under 5% CO2 conditions for 20-22 hours. The cells were then pre-treated with serially diluted test compounds for 60 min prior to stimulation with either 4 ng/mL human recombinant IL-2 (Miltenyl Biotech) or 50 ng/mL human recombinant IFNγ (InvivoGen) for 24 hours. SEAP induction was measured using the QUANTI-Blue™ Solution (InvivoGen) according to the manufacturer's instructions.

Test [3] concerns HEK-Blue™ IFNγ reporter cells. Briefly: HEK-Blue IFNγ reporter assay (SEAP) for determining selectivity. Type of test: cell-based. To be noted: 50 ng/mL human recombinant IFNγ, read-out: IFN-γ (SEAP selectivity, IC50). As for the experimental part: as §5, §6
For test [4], the target named is T1, TYK2 Pseudokinase (JH2). Kind of test: HEK-Blue IL-23 reporter assay (SEAP) for profiling TYK2 pseudokinase (JH2) inhibition. Format: cell-based. Further details: HEK-Blue™ IL-23 and IFNα/β cells with a stably-integrated cytokine receptor and STAT3 or STAT1; endogenous in cells; host or cells: HEK-Blue IL-23 and HEK-Blue IFNα/β cells. To be noted: HEK-Blue IL-23 cells, 10 ng/mL human recombinant IL-23, SEAP reporter; read-out: IL23 (TYK2 inhibitory activity, IC50). As for the experimental part: as §1, §2

Each structure is given as a SMILES string.

T1 sequence (P29597 whole entry): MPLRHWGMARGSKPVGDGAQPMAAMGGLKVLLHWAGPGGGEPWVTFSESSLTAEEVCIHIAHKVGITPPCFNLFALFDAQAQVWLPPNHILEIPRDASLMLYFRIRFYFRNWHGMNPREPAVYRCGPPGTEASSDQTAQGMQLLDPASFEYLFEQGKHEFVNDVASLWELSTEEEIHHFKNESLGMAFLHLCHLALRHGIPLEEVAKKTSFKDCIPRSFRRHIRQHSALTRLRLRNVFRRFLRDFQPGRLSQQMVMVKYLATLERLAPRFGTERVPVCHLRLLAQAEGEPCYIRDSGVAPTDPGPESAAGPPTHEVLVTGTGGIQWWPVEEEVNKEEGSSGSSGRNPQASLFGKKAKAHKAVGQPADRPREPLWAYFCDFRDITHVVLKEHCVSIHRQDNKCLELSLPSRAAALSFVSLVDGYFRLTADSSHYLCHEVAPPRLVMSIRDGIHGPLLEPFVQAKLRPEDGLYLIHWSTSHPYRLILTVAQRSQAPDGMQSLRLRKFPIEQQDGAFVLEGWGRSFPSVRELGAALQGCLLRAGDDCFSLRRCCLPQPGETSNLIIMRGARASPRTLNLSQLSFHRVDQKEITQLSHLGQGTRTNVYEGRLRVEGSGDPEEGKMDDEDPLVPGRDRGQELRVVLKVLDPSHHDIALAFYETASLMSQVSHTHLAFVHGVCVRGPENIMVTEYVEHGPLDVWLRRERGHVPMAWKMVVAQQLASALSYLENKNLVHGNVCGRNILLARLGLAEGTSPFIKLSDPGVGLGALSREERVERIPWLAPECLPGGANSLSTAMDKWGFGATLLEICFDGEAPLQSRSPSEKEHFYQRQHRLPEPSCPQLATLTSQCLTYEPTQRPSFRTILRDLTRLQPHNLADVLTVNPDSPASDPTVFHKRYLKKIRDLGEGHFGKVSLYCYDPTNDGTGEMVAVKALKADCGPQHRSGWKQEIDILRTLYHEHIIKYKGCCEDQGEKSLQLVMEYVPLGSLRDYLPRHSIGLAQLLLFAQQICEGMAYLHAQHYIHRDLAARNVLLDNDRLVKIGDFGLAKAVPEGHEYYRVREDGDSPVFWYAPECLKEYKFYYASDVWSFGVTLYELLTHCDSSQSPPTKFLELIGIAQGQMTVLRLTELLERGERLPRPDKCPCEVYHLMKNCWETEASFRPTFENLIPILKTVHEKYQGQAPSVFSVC

For `CNC(=O)c1nnc(Nc2ccc(F)cn2)cc1Nc1cccc2c1OCc1conc1-2` [Compound 2, 4-((4H-chromeno[4,3-c]isoxazol-6-yl)amino)-6-((5-fluoropyridin-2-yl)amino)-N-methylpyridazine-3-carboxamide], the IC50 (at TYK2 Pseudokinase (JH2) [1]; at TYK2-JH1; against JAK1-JH1; on JAK2-JH1; on JAK3-JH1; in test [2]) was greater than 1000 nM throughout. Moreover, the 50% inhibitory concentration (IC50) in test [3] was 300 to 1000 nM; at TYK2 Pseudokinase (JH2) [4], less than 30 nM.
For the compound `[2H]C([2H])([2H])NC(=O)c1cnc(NC(=O)C2CC2)cc1Nc1cccc2c1N(C)Cc1nn(C)c(=O)n1-2` [Compound 8, 6-(cyclopropanecarboxamido)-4-((2,5-dimethyl-1-oxo-1,2,4,5-tetrahydro-[1,2,4]triazolo[4,3-a]quinoxalin-6-yl)amino)-N-(methyl-d3)nicotinamide], the half-inhibitory concentration (IC50) was less than 30 nM at TYK2 Pseudokinase (JH2) [1]; greater than 1000 nM against TYK2-JH1; greater than 1000 nM on JAK1-JH1; greater than 1000 nM against JAK2-JH1; greater than 1000 nM at JAK3-JH1; greater than 1000 nM in test [2]. The IC50 in test [3] is 300 to 1000 nM; at TYK2 Pseudokinase (JH2) [4], less than 30 nM.
On to `[2H]C([2H])([2H])NC(=O)c1cnc(Nc2ccc(F)cn2)cc1Nc1cccc2c1N(C)Cc1nn(C)c(=O)n1-2` [Compound 9, 4-((2,5-dimethyl-1-oxo-1,2,4,5-tetrahydro-[1,2,4]triazolo[4,3-a]quinoxalin-6-yl)amino)-6-((5-fluoropyridin-2-yl)amino)-N-(methyl-d3)nicotinamide], for which the concentration for half-maximal inhibition (IC50) on TYK2 Pseudokinase (JH2) [1] is less than 30 nM; at TYK2-JH1, greater than 1000 nM; against JAK1-JH1, greater than 1000 nM; at JAK2-JH1, greater than 1000 nM; on JAK3-JH1, greater than 1000 nM; in test [2], greater than 1000 nM. Also, the results for the half-inhibitory concentration (IC50) (in test [3]; on TYK2 Pseudokinase (JH2) [4]) were greater than 1000 nM and less than 30 nM, respectively.
Take `[2H]C([2H])([2H])NC(=O)c1cnc(Nc2ccc(F)cn2)cc1Nc1cccc2c1N(C)Cc1nnnn1-2` [Compound 10, 6-((5-fluoropyridin-2-yl)amino)-N-(methyl-d3)-4-((5-methyl-4,5-dihydrotetrazolo[1,5-a]quinoxalin-6-yl)amino)nicotinamide]: the IC50 on TYK2 Pseudokinase (JH2) [1] was 30 to 300 nM; against TYK2-JH1 it was greater than 1000 nM; on JAK1-JH1, greater than 1000 nM; at JAK2-JH1, greater than 1000 nM; on JAK3-JH1 it was greater than 1000 nM; in test [2], greater than 1000 nM. Moreover, the IC50 was greater than 1000 nM in test [3] and less than 30 nM on TYK2 Pseudokinase (JH2) [4].
In the case of `[2H]C([2H])([2H])NC(=O)c1cnc(NC(=O)C2CC2)cc1Nc1cccc2c1N(C)Cc1nnnn1-2` [Compound 11, 6-(cyclopropanecarboxamido)-N-(methyl-d3)-4-((5-methyl-4,5-dihydrotetrazolo[1,5-a]quinoxalin-6-yl)amino)nicotinamide], the IC50 was 30 to 300 nM on TYK2 Pseudokinase (JH2) [1]; greater than 1000 nM on TYK2-JH1; greater than 1000 nM on JAK1-JH1; greater than 1000 nM at JAK2-JH1; greater than 1000 nM on JAK3-JH1; greater than 1000 nM in test [2]. The IC50 in test [3] was greater than 1000 nM; on TYK2 Pseudokinase (JH2) [4], less than 30 nM.
As to `[2H]C([2H])([2H])NC(=O)c1cnc(Nc2cc(C)nc(C)n2)cc1Nc1cccc2c1N(C)Cc1nn(C)c(=O)n1-2` [Compound 12, 4-((2,5-dimethyl-1-oxo-1,2,4,5-tetrahydro-[1,2,4]triazolo[4,3-a]quinoxalin-6-yl)amino)-6-((2,6-dimethylpyrimidin-4-yl)amino)-N-(methyl-d3)nicotinamide], the half-maximal inhibitory concentration (IC50) is less than 30 nM on TYK2 Pseudokinase (JH2) [1]; greater than 1000 nM at TYK2-JH1; greater than 1000 nM on JAK1-JH1; greater than 1000 nM against JAK2-JH1; greater than 1000 nM on JAK3-JH1; greater than 1000 nM in test [2]. Moreover, the IC50 in test [3] was greater than 1000 nM; at TYK2 Pseudokinase (JH2) [4], less than 30 nM.
As for `CNC(=O)c1cnc(Nc2ccc(F)cn2)cc1Nc1cccc2c1OCCn1nnnc1-2` [Compound 15, 4-((5,6-dihydrobenzo[f]tetrazolo[1,5-d][1,4]oxazepin-8-yl)amino)-6-((5-fluoropyridin-2-yl)amino)-N-methylnicotinamide], the 50% inhibitory concentration (IC50) at TYK2 Pseudokinase (JH2) [1] is 300 to 1000 nM; against TYK2-JH1, greater than 1000 nM; against JAK1-JH1, greater than 1000 nM; against JAK2-JH1, greater than 1000 nM; against JAK3-JH1, greater than 1000 nM; on TYK2 Pseudokinase (JH2) [4] it was 30 to 300 nM.
As to `[2H]C([2H])([2H])NC(=O)c1nnc(NC(=O)C2CC2)cc1Nc1cc(F)cc2c1N(C)Cc1nn(C)c(=O)n1-2` [Compound 18, 6-(cyclopropanecarboxamido)-4-((8-fluoro-2,5-dimethyl-1-oxo-1,2,4,5-tetrahydro-[1,2,4]triazolo[4,3-a]quinoxalin-6-yl)amino)-N-(methyl-d3)pyridazine-3-carboxamide], the half-inhibitory concentration (IC50) on TYK2 Pseudokinase (JH2) [1] was 30 to 300 nM; on TYK2-JH1 it was greater than 1000 nM; on JAK1-JH1, greater than 1000 nM; against JAK2-JH1, greater than 1000 nM; at JAK3-JH1, greater than 1000 nM; in test [2], greater than 1000 nM. The IC50 at TYK2 Pseudokinase (JH2) [4] was less than 30 nM.
Consider `[2H]C([2H])([2H])NC(=O)c1nnc(NC(=O)C2CC2)cc1Nc1nccc2c1N(C)Cc1nn(C)c(=O)n1-2` [Compound 20, 6-(cyclopropanecarboxamido)-4-((2,5-dimethyl-1-oxo-1,2,4,5-tetrahydropyrido[3,4-e][1,2,4]triazolo[4,3-a]pyrazin-6-yl)amino)-N-(methyl-d3)pyridazine-3-carboxamide], for which the IC50 at TYK2 Pseudokinase (JH2) [1] was less than 30 nM; against TYK2-JH1 it was greater than 1000 nM; against JAK1-JH1 it was greater than 1000 nM; against JAK2-JH1, greater than 1000 nM; on JAK3-JH1 it was greater than 1000 nM; in test [2], greater than 1000 nM. Moreover, the IC50 on TYK2 Pseudokinase (JH2) [4] was less than 30 nM.
